Calls of active or inactive are those of the source. No cut-off for these calls is given here.
Tests used:
RAW264.7 [1] = test: Cytotoxicity against mouse RAW264.7 cells assessed as reduction in cell viability at 100 uM measured after 24 hrs by CCK8 assay; format: toxicity, cell-based; settings: raw264.7, 24 h
RAW264.7 [2] = test: Antiinflammatory activity in mouse RAW264.7 cells assessed as reduction in LPS-induced NO production pre-incubated for 2 hrs followed by LPS stimulation measured after 24 hrs by Griess method; format: functional, cell-based
RAW264.7 [3] = test: Antiinflammatory activity in mouse RAW264.7 cells assessed as reduction in LPS-induced TNF-alpha production pre-incubated for 2 hrs followed by LPS stimulation measured after 24 hrs by Griess method; format: functional, cell-based; settings: dose 5-40 µM, time 26.0 hrs
RAW264.7 [4] = test: Antiinflammatory activity in mouse RAW264.7 cells assessed as reduction in LPS-induced IL-6 production pre-incubated for 2 hrs followed by LPS stimulation measured after 24 hrs by Griess method; format: functional, cell-based; settings: dose 5-40 µM, time 26.0 hrs
RAW264.7 [5] = test: Antiinflammatory activity against mouse RAW264.7 cells assessed as inhibition of LPS-induced iNOS expression at 10 uM pre-incubated for 2 hrs followed by LPS stimulation measured after 24 hrs by western blot analysis; format: functional, cell-based; settings: time 26.0 hrs
RAW264.7 [6] = test: Antiinflammatory activity against mouse RAW264.7 cells assessed as inhibition of LPS-induced NF-kappaB/p65 expression at 10 to 40 uM pre-incubated for 2 hrs followed by LPS stimulation measured after 24 hrs by western blot analysis; format: functional, cell-based; settings: dose 10-40 µM, time 26.0 hrs

SMILES | Activity (RAW264.7 [1]) | also measured
CC1=C2C(=O)C3=C(C[C@H]2OC1=O)[C@]1(C)CC[C@@H](O)C(C)(CO)[C@H]1CC3 (some centres not stated) | Non-Toxic | –
CC1=C2C=C3CC[C@@H]4C(C)(C)C(=O)CC[C@@]4(C)[C@]3(O)C[C@H]2OC1=O | Non-Toxic | –
CC1=C2C=C3CC[C@@H]4C(C)(C)OC(=O)C[C@@]4(C)[C@@H]3C[C@H]2OC1=O | Non-Toxic | –
CC1=C2C=C3CC[C@@H]4C(C)(C)OC(=O)[C@@]4(C)[C@@H]3C[C@H]2OC1=O | Non-Toxic | –
CC1=C2C=C3CC[C@@H]4C(C)(C)C(=O)[C@H](O)[C@@]4(C)[C@@H]3C[C@H]2OC1=O | Non-Toxic | IC50 (RAW264.7 [2]): 33 µM; Activity (RAW264.7 [3]): Dose-Dependent Effect; Activity (RAW264.7 [4]): Dose-Dependent Effect; Activity (RAW264.7 [5]): Active; Activity (RAW264.7 [6]): Active
CC1=C2C=C3CC[C@@H]4C(C)(C)[C@H](O)[C@H](O)C[C@@]4(C)[C@@H]3C[C@H]2OC1=O | Non-Toxic | –
CC1=C2C=C3CC[C@@H]4C(C)(C)[C@@H](O)CC[C@@]4(C)[C@@H]3C[C@H]2OC1=O [HELIOSCOPINOLIDE B] | Non-Toxic | –
CC1=C2C=C3CC[C@@H]4C(C)(C)[C@H](O)C(=O)C[C@@]4(C)[C@@H]3C[C@H]2OC1=O | Non-Toxic | IC50 (RAW264.7 [2]): 33.8 µM
CC1=C2C=C3CC[C@@H]4C(C)(C)C(=O)C(O)=C[C@@]4(C)[C@@H]3C[C@H]2OC1=O | Non-Toxic | –
CC1=C2C=C3CC[C@@H]4C(C)(C)[C@H](O)CC[C@@]4(C)[C@@H]3C[C@H]2OC1=O [HELIOSCOPINOLIDE A] | Non-Toxic | –
CC1=C2C=C3CC[C@@H]4C(C)(C)[C@@H](O)CC[C@@]4(C)[C@]3(O)C[C@H]2OC1=O | Non-Toxic | –

— ChEMBL document CHEMBL5252599, “Euphohelides A-C, ent-Abietane-Type Norditerpene Lactones from Euphorbia helioscopia and Their Anti-Inflammatory Activities” (J Nat Prod, 2023)
